These results are taken from PMC2390898 (Antiviral Research, 2006).

The test system of data set [1] is RTA. The format is cell-based, Kaposi's sarcoma-associated herpesvirus (KSHV).
Data set [2] deals with RTA. It counts as cell-based, Kaposi's sarcoma-associated herpesvirus (KSHV). This is another data set of the same source.
Data set [3] concerns RTA. It counts as cell-based, Kaposi's sarcoma-associated herpesvirus (KSHV). This is another data set of the same source.
For data set [4], the system named is RTA. It counts as cell-based, Kaposi's sarcoma-associated herpesvirus (KSHV). The source holds these as a separate data set.
The test system of data set [5] is LANA. The format is cell-based, Kaposi's sarcoma-associated herpesvirus (KSHV).
Data set [6] deals with BCBL-1 cells. The note with it: for relative percentage of fluorescence intensity (cell viability): 1 h.
Data set [7] relates to ORF50 leader sequence (RP1 P-PMO target region)-luciferase RNA. The format is biochemical, Kaposi's sarcoma-associated herpesvirus (KSHV).
The subject of data set [8] is LP1/luciferase RNA. The data set can be described thus: Cell-free reporter assay with LP1/luciferase RNA. It counts as biochemical, Kaposi's sarcoma-associated herpesvirus (KSHV). The note with it: data not shown. (In a reporter assay the amount or activity of a reporter protein is the signal.)
Data set [9] has as its system BCBL-1 cells. In words: PMO/P-PMO uptake and persistence in BCBL-1 cells. The format is cell-based.
Data set [10] concerns KSHV. It counts as cell-based, Kaposi's sarcoma-associated herpesvirus (KSHV).

Read-outs that look alike come from different tables or passages of the source.

As to `CC(=O)N1C[C@@H](COP(=O)(N(C)C)N2C[C@@H](COP(=O)(N(C)C)N3C[C@@H](COP(=O)(N(C)C)N4C[C@@H](COP(=O)(N(C)C)N5C[C@@H](COP(=O)(N(C)C)N6C[C@@H](COP(=O)(N(C)C)N7C[C@@H](COP(=O)(N(C)C)N8C[C@@H](COP(=O)(N(C)C)N9C[C@@H](COP(=O)(N(C)C)N%10C[C@@H](COP(=O)(N(C)C)N%11C[C@@H](COP(=O)(N(C)C)N%12C[C@@H](COP(=O)(N(C)C)N%13C[C@@H](COP(=O)(N(C)C)N%14C[C@@H](COP(=O)(N(C)C)N%15C[C@@H](COP(=O)(N(C)C)N%16C[C@@H](COP(=O)(N(C)C)N%17C[C@@H](COP(=O)(N(C)C)N%18C[C@@H](COP(=O)(N(C)C)N%19C[C@@H](COP(=O)(N(C)C)N%20C[C@@H](COP(=O)(N(C)C)N%21CCN(C(=O)CCCN%22C(=O)CC(SC[C@H](NC(=O)[C@H](CCCNC(=N)N)NC(=O)[C@H](CCCNC(=N)N)NC(=O)[C@H](CCCNC(=N)N)NC(=O)[C@H](CCCNC(=N)N)NC(=O)[C@H](Cc%23ccccc%23)NC(=O)[C@H](Cc%23ccccc%23)NC(=O)[C@H](CCCNC(=N)N)NC(=O)[C@H](CCCNC(=N)N)NC(=O)[C@H](CCCNC(=N)N)NC(=O)[C@H](CCCNC(=N)N)NC(=O)[C@@H](N)CCCNC(=N)N)C(N)=O)C%22=O)CC%21)O[C@@H](n%21cnc%22c(=O)[nH]c(N)nc%22%21)C%20)O[C@@H](n%20cnc%21c(N)ncnc%21%20)C%19)O[C@@H](n%19cc(C)c(=O)[nH]c%19=O)C%18)O[C@@H](n%18cnc%19c(N)ncnc%19%18)C%17)O[C@@H](n%17cc(C)c(=O)[nH]c%17=O)C%16)O[C@@H](n%16cnc%17c(N)ncnc%17%16)C%15)O[C@@H](n%15ccc(N)nc%15=O)C%14)O[C@@H](n%14cnc%15c(N)ncnc%15%14)C%13)O[C@@H](n%13ccc(N)nc%13=O)C%12)O[C@@H](n%12cnc%13c(N)ncnc%13%12)C%11)O[C@@H](n%11cnc%12c(N)ncnc%12%11)C%10)O[C@@H](n%10ccc(N)nc%10=O)C9)O[C@@H](n9cnc%10c(N)ncnc%109)C8)O[C@@H](n8ccc(N)nc8=O)C7)O[C@@H](n7ccc(N)nc7=O)C6)O[C@@H](n6ccc(N)nc6=O)C5)O[C@@H](n5cnc6c(N)ncnc65)C4)O[C@@H](n4cnc5c(N)ncnc54)C3)O[C@@H](n3cc(C)c(=O)[nH]c3=O)C2)O[C@@H](n2cc(C)c(=O)[nH]c2=O)C1` (stereo partly drawn) [CP1], in [1], the “RTA-positive cells by IFA” value was “approximately 20%”. In addition, the “number of RTA-positive cells by IFA in BC-1 cells” value in data set [2] is “no effect”. Moreover, in data set [3], the “change in RTA expression by Western blot” value is on record as “no detectable change”. Besides, the “RTA flow cytometry profile” value in data set [4] is reported as “same profile as the mock treatment control”. In [5], the “LANA staining by IFA after three treatments” value was “no detectable effect”. Further, in [6], the cytotoxicity result was “no detectable cytotoxicity”. The “relative percentage of fluorescence intensity (cell viability)” value worked out at 106% in [6] (8 μM) and 107% in data set [6] (16 μM).

H-RRRRRFFRRRRC-NH2 [LP1]: the “effect on luciferase translation (negative control P-PMO)” value in data set [7] was “did not have any effect”. In addition, in data set [8], the “inhibition of translation in LP1/luciferase reporter system” value is on record as “effective at inhibiting translation”. In data set [5], the “change in LANA level, recurrent application” value is “no change”; the “effect on LANA expression, single application (IFA and Western blot)” value is given as “no effect”.

Regarding H-RRRRRFFRRRRC-NH2 [LP2], in data set [5], the “LANA protein level (IFA and Western blot)” value is “caused reduction”; the “LANA staining by IFA after three treatments” value was “much weaker”; the “reduction in LANA protein level after the second application” value is listed as “over 60%”.

As to H-RRRRRFFRRRRC-NH2 [P-PMO-F1], the “cells with green fluorescence at 24, 48 and 72 h (fluorescence microscopy)” value in [9] (BCBL-1 cells treated 4 h with 8 μM, rinsed, harvested 24, 48 and 72 h later) is “almost all cells”. In [9] (BCBL-1 cells treated 4 h with 8 μM, rinsed, harvested 24, 48 and 72 h later, all three time points), the “cells with green fluorescence at 24, 48 and 72 h (flow cytometry)” value is reported as “over 95%”. The “fluorescence of cells by flow cytometry” value in data set [9] (BCBL-1 cells, 8 μM, treated for 4 h, flow cytometry, 525 nm band pass filter) is listed as “high percentage”. Besides, in data set [9] (BCBL-1 cells, day 7 after treatment, reduced intensity, data not shown), the “green fluorescence in treated cells at day 7” value is on record as “still observed”.

Consider H-RRRRRFFRRRRC-NH2 [mRP1], for which the “change in RTA expression by Western blot” value in data set [3] is listed as “no effect”.

Turning to “tetradecanoyl phorbol acetate [TPA, reference compound]”, in data set [1], the “RTA-positive cells by IFA after TPA induction, no P-PMO” value was “approximately 20%”. For the same compound, the “RTA-positive cells by flow cytometry after TPA induction, no P-PMO” value in data set [4] was “approximately 25%”. In addition, in data set [10], the “increase of KSHV viral DNA level by TPA induction, in cells” value is reported as 1.84 fold and the “increase of KSHV viral DNA level by TPA induction, in culture supernatant” value was 2.75 fold.
